Where two headings read alike, the source gives them in different places.
Assays:
[1] = test system: HMLER cells; conditions: 72 h incubation, cited from earlier work
[2] = test system: HMLER-shEcad cells; conditions: 72 h incubation, cited from earlier work
[3] = test system: HMLER-shEcad mammospheres; set-up: method as in PMID 26806362, PMID 31588328, PMID 28932846, PMID 31209956; conditions: 120 h incubation, ref [14],[37],[39],[40], read-out: Mammosphere IC50; cited from earlier work
[4] = test system: HMLER cells; assay: MTT cytotoxicity assay, bulk breast cancer cells; type: cell-based, human; conditions: 72 h incubation
Method: (§1) Exponentially growing cells were seeded at a density of approximately 5 × 10^3 cells per well in 96-well flat-bottomed microplates, and allowed to attach for 24 h prior to the addition of compounds. […] Stock solutions of the compounds were prepared as 10 mM DMSO solutions, and diluted using cell media. […] After 72 h, 20 μL of MTT (4 mg mL^−1 in PBS) was added to each well, and the plates were incubated for an additional 4 h at 37 °C. The media/MTT mixture was eliminated, and DMSO (100 μL per well) was added to dissolve the formazan precipitates. […] Absorbance values were normalised to (DMSO-containing) control wells, and plotted as concentration of compound versus % cell viability. IC50 values were interpolated from the resulting dose-dependent curves.

[5] = test system: HMLER-shEcad cells; assay: MTT cytotoxicity assay, breast CSCs; type: cell-based, human; conditions: 72 h incubation
Method: as §1

[6] = test system: BEAS-2B cells; assay: MTT cytotoxicity assay, non-cancerous bronchial epithelium cells; type: cell-based; conditions: 72 h incubation
Method: Exponentially growing cells were seeded at a density of approximately 5 × 10^3 cells per well in 96-well flat-bottomed microplates, and allowed to attach for 24 h prior to the addition of compounds. Various concentrations of the test compounds (0.19–100 μM) were added, and the plates were incubated for 72 h at 37 °C (total volume 200 μL). Stock solutions of the compounds were prepared as 10 mM DMSO solutions, and diluted using cell media. The final concentration of DMSO in each well was ≤1 %. After 72 h, 20 μL of MTT (4 mg mL^−1 in PBS) was added to each well, and the plates were incubated for an additional 4 h at 37 °C. The media/MTT mixture was eliminated, and DMSO (100 μL per well) was added to dissolve the formazan precipitates. The optical density was measured at 550 nm, using a 96-well multiscanner autoreader. Absorbance values were normalised to (DMSO-containing) control wells, and plotted as concentration of compound versus % cell viability. IC50 values were interpolated from the resulting dose-dependent curves.

[7] = test system: HMLER-shEcad mammospheres; assay: Mammosphere viability assay (TOX8); type: cell-based, human; conditions: TOX8, 120 h incubation
Method: HMLER-shEcad cells (5 × 10^3) were plated in ultralow-attachment 96-well plates (Corning) and incubated in MEGM supplemented with B27 (Invitrogen), 20 ng mL^−1 EGF, and 4 μg mL^−1 heparin (Sigma), for 5 days. Studies were also conducted in the presence of 1–3, cisplatin and salinomycin (0–133 µM). Mammospheres treated with 1–3, cisplatin, and salinomycin (0.5 µM, 5 days) were counted and imaged, using an inverted microscope. The viability of the mammospheres was determined via the addition of a resazurin-based reagent, TOX8 (Sigma). After incubation for 16 h, the fluorescence of the solutions was read at 590 nm (λex = 560 nm). Viable mammospheres reduce the amount of the oxidised TOX8 form (blue) and, concurrently, increase the amount of the fluorescent TOX8 intermediate (red), indicating the degree of mammosphere cytotoxicity caused by the test compound. Fluorescence values were normalised to DMSO-containing controls, and plotted as concentration of test compound versus % mammospheres viability. IC50 values were interpolated from the resulting dose-dependent curves. The reported IC50 values are the average of two independent experiments, each consisting of two replicates per concentration level (n = 4).

[8] = test system: HMLER-shEcad cells; assay: Intracellular ROS assay (DCFH-DA); type: cell-based, human; conditions: 2 × IC50 value
Method: HMLER-shEcad cells (5 × 10^3) were seeded in each well of a 96-well plate. […] The intracellular ROS level was determined via measurement of the fluorescence of the solutions in each well at 529 nm (λex = 504 nm).

[9] = Water–octanol partition coefficient (LogP), shake-flask method and ICP-MS; type: physicochemical; conditions: water/1-octanol, room temperature, 24 h
Method: The 1-octanol used in this experiment was pre-saturated with water. […] The tube was shaken at room temperature for 24 h. The two phases were separated via centrifugation, and the copper content in the water phase was determined via ICP-MS.

[10] = ref [1,2] of the SI (Eskandari et al. 2016; Eskandari, Suntharalingam 2019)

For `N.N.[Cl][Pt][Cl]` [cisplatin], the IC50 ([1]; ref [14],[37],[39],[40]) is given as 2.57 ± 0.02 µM, the IC50 ([2]; ref [14],[37],[39],[40]) is given as 5.65 ± 0.3 µM and the IC50 [3] is given as 13.5 ± 2.34 µM.
`O=C([O-])Cc1ccccc1Nc1c(Cl)cccc1Cl.[Cu+].c1ccc(P(c2ccccc2)c2ccccc2)cc1.c1ccc(P(c2ccccc2)c2ccccc2)cc1` [compound 1, [Cu^I(diclofenac)(PPh3)2]] showed an IC50 [4] of 2.42 ± 0.1 µM, an IC50 [5] of 4.61 ± 0.18 µM and an IC50 [6] of 4.32 ± 0.13 µM. For the same compound, the IC50 [7] was 18.2 ± 2.02 µM, the “Increase in ROS levels compared to untreated control cells” value ([8]; 1 h exposure) was 76% and the “Change of intracellular ROS status” value ([8]; exposure beyond 1 h (3–24 h)) was “did not markedly alter”.
Compound `COc1ccc2cc(C(C)C(=O)[O-])ccc2c1.[Cu+].c1ccc(P(c2ccccc2)c2ccccc2)cc1.c1ccc(P(c2ccccc2)c2ccccc2)cc1` [compound 2, [Cu^I(naproxen)(PPh3)2]] has an IC50 [4] of 2.36 ± 0.03 µM, an IC50 [5] of 4.46 ± 0.08 µM and an IC50 [6] of 4.11 ± 0.001 µM. For the same compound, the IC50 [7] was 11.8 ± 0.7 µM, the “Increase in ROS levels” value ([8]; 16 h exposure) was 41% and the “Increase in ROS levels” value ([8]; 24 h exposure) was 32%.
`O=C([O-])c1ccccc1O.[Cu+].c1ccc(P(c2ccccc2)c2ccccc2)cc1.c1ccc(P(c2ccccc2)c2ccccc2)cc1` [compound 3, [Cu^I(salicylate)(PPh3)2]] showed a LogP [9] of 0.82 ± 0.002, an IC50 [4] of 2.13 ± 0.002 µM and an IC50 [5] of 4.55 ± 0.001 µM. The IC50 [6] was 3.53 ± 0.21 µM, the IC50 [7] was 13.6 ± 0.74 µM and the “Increase in ROS levels” value ([8]; 16 h exposure) was 191%. For the same compound, the “Increase in ROS levels” value ([8]; 24 h exposure) was 75%.
In the case of `O=C(O)Cc1ccccc1Nc1c(Cl)cccc1Cl` [diclofenac], the IC50 [1, 10] is given as 69.5 ± 8.7 µM and the IC50 [2, 10] is given as 54.74 ± 0.23 µM.
For `COc1ccc2cc([C@H](C)C(=O)O)ccc2c1` [naproxen], the IC50 [1, 10] is listed as over 100 µM and the IC50 [2, 10] is listed as over 100 µM.
For `CC[C@@H](C(=O)[C@@H](C)[C@@H](O)[C@H](C)[C@@H]1O[C@@H]([C@@H](CC)C(=O)O)CC[C@@H]1C)[C@H]1O[C@]2(C=C[C@@H](O)[C@]3(CC[C@@](C)([C@H]4CC[C@](O)(CC)[C@H](C)O4)O3)O2)[C@H](C)C[C@@H]1C` [salinomycin], the IC50 ([1]; ref [14],[37],[39],[40]) is listed as 11.4 ± 0.42 µM, the IC50 ([2]; ref [14],[37],[39],[40]) is listed as 4.23 ± 0.35 µM and the IC50 [3] is listed as 18.5 ± 1.5 µM.
